The text below walks through data of patent publication US8980846B2, “Composition containing styraxlignolide A or the aglycone thereof as an active ingredient for preventing or treating asthma” (Korea Research Institute of Bioscience and Biotechnology, priority 2010, dated 2015).

Experiment [1] deals with goblet cells. The experiment is described as follows: Ratio of goblet cells to bronchial epithelial cells (PAS staining). The class given is in vivo, Balb/c female mice. Particulars: asthma-induced mice, homoegonol study. Here is the method:
(§1) To prepare bronchial asthma-induced experimental animals, six-week-old Balb/c female mice of mean weight about 20 g were used. After one week of adaptation, individuals which had no observed abnormality on a basic physical examination were targeted. 200 μL of phosphate buffered saline (PBS)(pH 7.4) in which 2 mg of aluminum hydroxide (A8222, Sigma, St. Louis, Mo.) and 20 μg of ovalbumin (A5503, Sigma, St. Louis, Mo.) were suspended was injected into the peritoneal cavity at two-week intervals to result in sensitization. On days 28 to 30 after the first intraperitoneal administration of ovalbumin, inhalation challenge was performed for 30 min with 1% ovalbumin using an ultrasonic atomizer. 24 hours after the last antigen administration, airway hyperresponsiveness was measured. After 24 hours, a lethal dose of pentobarbital (Entobar®, Hanlim Pharm Co., Ltd.) was administered, body weight measurement and bronchotomy were performed, and bronchoalveolar lavage was performed with a total 1.2 mL of physiological saline, and then, samples were collected. […] Eight white mice were used for each group. Experimental groups for homoegonol were a group (hE7.5) in which animals were orally administered with 7.5 mg/kg homoegonol 1 hour prior to ovalbumin inhalation, a group (hE15) in which animals were orally administered with 15 mg/kg homoegonol 1 hour prior to ovalbumin inhalation, and a group (hE30) in which animals were orally administered with 30 mg/kg homoegonol 1 hour prior to ovalbumin inhalation, and five white mice were used for each group.
Lungs removed from each individual were subjected to conventional formalin fixation and paraffin embedding, and permanent section slides of 4 μm thickness were prepared, and periodic acid Schiff (PAS) staining was performed to determine goblet cells. Proliferation of goblet cells was assessed by measuring the ratio of goblet cells to bronchial epithelial cells.
In accordance with the method in <Experimental Example 7-2>, the ratio of goblet cells which were determined by periodic acid-Schiff staining to bronchial epithelial cells were measured to assess proliferation of goblet cells.

The subject of experiment [2] is airway hyperresponsiveness. The experiment is described as follows: Airway hyperresponsiveness, Penh by one chamber plethysmography after methacholine inhalation. The class given is in vivo, Balb/c female mice. Particulars: asthma-induced mice, homoegonol study. Here is the method:
as §1, with “Experimental groups for homoegonol were a group (hE7.5) in which animals were orally administered with 7.5 mg/kg homoegonol 1 hour prior to ovalbumin inhalation, a group (hE15) in which animals were orally administered with 15 mg/kg homoegonol 1 hour prior to ovalbumin inhalation, and a group (hE30) in which animals were orally administered with 30 mg/kg homoegonol 1 hour prior to ovalbumin inhalation, and five white mice were used for each group.” left out
The effect of styraxlignolide A on airway hyperresponsiveness caused by asthma occurrence was examined by measuring airway resistance with one chamber plethysmography (All medicus, Seoul, Republic of Korea) and degree of airway resistance was assessed by measuring Penh (enhanced pause) values. The baseline value was measured under a normal respiratory condition, and then, PBS was inhaled using an ultrasonic atomizer for 3 min, and Penh values were measured over 3 min. […] Louis, Mo.) which is used in general methods for diagnosis of bronchial asthma were inhaled and Penh values were measured. Penh value is shown in the following Equation 1, and the resulting Penh value was expressed as a percent increase in Penh after inhalation of each concentration of methacholine. The baseline Penh (saline challenge) was expressed as 100%.
Te: expiratory time (sec), the time from inspiration to the next inspiration
RT: relaxation time, the elapsed time between the beginning of the expiration and the moment when the remaining 30% of the tidal volume has been reached during expiration
PEF: Peak expiration flow
PIF: Peak inspiration flow
To examine the effect of homoegonol on airway hyperresponsiveness caused by asthma occurrence, Penh value was measured according to the method in <Experimental Example 2>.

Each structure is given as a SMILES string.

On to `COc1ccc(-c2cc3cc(CCCO)cc(OC)c3o2)cc1OC` [homoegonol], for which the “Goblet cells %/bronchial epithelial cell unit” value in experiment [1] (7.5 mg/kg PO, 7.5 mg/kg) was determined as 36.5600±11.5613%; in experiment [1] (15 mg/kg PO, 15 mg/kg), 32.4109±10.8037%; in experiment [1] (30 mg/kg PO, 30 mg/kg), 25.0956±3.4033%. For the same molecule, the Penh values is on record as 0.6003 ± 0.0500 in experiment [2] (7.5 mg/kg PO, methacholine 0 mg/ml); 1.1399 ± 0.1279 in experiment [2] (7.5 mg/kg PO, methacholine 12.5 mg/ml); 1.4067 ± 0.1279 in experiment [2] (7.5 mg/kg PO, methacholine 25 mg/ml); 1.4317 ± 0.2094 in experiment [2] (7.5 mg/kg PO, methacholine 50 mg/ml); 0.4538 ± 0.0376 in experiment [2] (15 mg/kg PO, methacholine 0 mg/ml); 0.7989 ± 0.0736 in experiment [2] (15 mg/kg PO, methacholine 12.5 mg/ml). Moreover, the Penh values amounted to 1.0243 ± 0.1881 in experiment [2] (15 mg/kg PO, methacholine 25 mg/ml); 1.0918 ± 0.1914 in experiment [2] (15 mg/kg PO, methacholine 50 mg/ml); 0.4736 ± 0.0420 in experiment [2] (30 mg/kg PO, methacholine 0 mg/ml); 0.6516 ± 0.0914 in experiment [2] (30 mg/kg PO, methacholine 12.5 mg/ml); 0.9515 ± 0.1268 in experiment [2] (30 mg/kg PO, methacholine 25 mg/ml); 1.0576 ± 0.1582 in experiment [2] (30 mg/kg PO, methacholine 50 mg/ml).
